The subject of series [1] is Miapaca-2 cells. The series is described as follows: Tumor size in model transplanted pancreas cancer, existing anticancer agents combined with Burdock Fruit extract (Test Example 6). It is filed as in vivo, mice. As to conditions: anticancer agent combined with GBS-01 750 mg/kg oral 5 days a week; about 4 weeks. The protocol:
Miapaca-2 cells (5×10^6 cells/200 μl ) were subcutaneously transplanted under the armpit of BALB/cAJcl-nu/nu mice (CLEA Japan, Inc.), and after feeding of about 2 weeks those that grew to the size of about 100 mm^3 or about 600 mm^3 were selected and employed as the subject mice to be treated.
Thus prepared transplanted mice were divided into the respective groups, that is, an untreated group, a group administered an existing anticancer agent as a component having a variety of anticancer activities, a Burdock Fruit extract administered group and a group of combined administration of these agents, and the treatment was continued over about 4 weeks for 5 to 6 species of tumors in the respective groups. The existing anticancer agents used include Carboplatin (CBDCA, Bristol-Myers, peritoneal administration, 60 mg/kg once a week), Doxorubicin (Kyowa Hakko, peritoneal administration, 10 mg/kg twice a week), Oxaliplatin (Yakult, peritoneal administration, 8 mg/kg once a week), Everolimus (Novartis, oral administration, 5 mg/kg 5 times a week) , Bortezomib (Janssen Pharma, peritoneal administration, 1 mg/kg twice a week), Irinotecan (Yakult, peritoneal administration, 25 mg/kg twice a week), and Hydroxychloroquine (Sanofi, peritoneal administration, 100 mg/kg 5 times a week) . As for Burdock Fruit extract, 10% arctigenin-containing Burdock Fruit extract (Kracie Co., GBS-01) was used and orally administered at a dose of 750 mg/kg 5 days a week.
At intervals of 3 to 4 days, the mouse was fixed and the length (L), the minor axis (W) and the height (H) of tumor were measured by a precision digital vernier micrometer, from which the tumor size was calculated using the formula: Tumor size=4/3*pi*L/2*H/2*W/2(pi=3.14)
When the height cannot be measured, the formula: Tumor size=4/3*pi*L/2*(W/2)^2 was used for convenience.

A short description of series [2]: Solubility in water. It counts as physicochemical.
For series [3], the system named is pancreas cancer cell strain PANC-1. As to conditions: Non-Patent Document 1; cited from earlier work.
The test system of series [4] is PANC-1 (ATCC No. CRL-1469) cells.
Protocol: After treatment for a period of 18-24 hours, the number of survival cells was counted with a Cell Counting Kit (Dojindo).

These results are taken from US9907852B2, “Anticancer agent and side-effect-alleviating agent” (National University Corporation University of Toyama, priority 2014, dated 2018).

Consider `CCc1c2c(nc3ccc(OC(=O)N4CCC(N5CCCCC5)CC4)cc13)-c1cc3c(c(=O)n1C2)COC(=O)[C@]3(O)CC` [irinotecan, Irinotecan], for which, in series [1], the “tumor size reduced compared to a single preparation of Burdock Fruit extract” value (shortened to “tumor size reduced … of Burdock Fruit extract”) is reported as 2.1 times and the “tumor size reduced compared to a single preparation of the anticancer agent” value (“tumor size reduced … of the anticancer agent” for short) turned out to be 1.5 times.
Consider `COc1cc(C[C@H]2C(=O)OC[C@@H]2Cc2ccc(OC)c(OC)c2)ccc1O` [arctigenin], for which the solubility in water entry in series [2] is “slightly soluble”. In series [3], the “removal of the viability of tumor cells in a low nutritional state” value is “effective”.
`CCCCOc1cc(CC2CNC(=O)N2)ccc1OC` (centres unmarked) [Ro-20-1724]: the “Magnification of LD50 decrease” value in series [4] was 1.66.
As for `CCN(CCO)CCCC(C)Nc1ccnc2cc(Cl)ccc12` (centres unmarked) [hydroxychloroquine], in series [1], the “tumor size reduced … of Burdock Fruit extract” value came out at 1.9 times and the “tumor size reduced … of the anticancer agent” value is on record as 2.5 times.
Consider `Nc1nc(OCc2ccccc2)c2nc[nH]c2n1` [Benzylguanine], for which the “Magnification of LD50 decrease” value in series [4] was 8.24.
Consider `COc1ccc(C[C@H]2COC(=O)[C@@H]2Cc2ccc(O[C@@H]3O[C@H](CO)[C@@H](O)[C@H](O)[C@H]3O)c(OC)c2)cc1OC` [arctiin], for which, in series [2], the solubility in water entry is recorded as “slightly soluble”.
For the compound `CO[C@H]1C[C@@H]2CC[C@@H](C)[C@@](O)(O2)C(=O)C(=O)N2CCCC[C@H]2C(=O)O[C@H]([C@H](C)C[C@@H]2CC[C@@H](OCCO)[C@H](OC)C2)CC(=O)[C@H](C)/C=C(\C)[C@@H](O)[C@@H](OC)C(=O)[C@H](C)C[C@H](C)/C=C/C=C/C=C/1C` [everolimus, Everolimus], in series [1], the “tumor size reduced … of Burdock Fruit extract” value came out at 2.1 times and the “tumor size reduced … of the anticancer agent” value is on record as 1.4 times.
In the case of `Cc1cn([C@H]2C[C@H](N=[N+]=[N-])[C@@H](CO)O2)c(=O)[nH]c1=O` [AZT], in series [4], the “Magnification of LD50 decrease” value stood at 4.67.
`c1cc(-c2cnn3cc(-c4ccc(OCCN5CCCCC5)cc4)cnc23)ccn1` [Dorsomorphin]: the “Magnification of LD50 decrease” value in series [4] amounted to 6.14.
Turning to `CC(C)[C@H](CO)Nc1nc(Nc2cccc(Cl)c2)c2ncn(C(C)C)c2n1` [Purvalanol A], in series [4], the “Magnification of LD50 decrease” value worked out at 1.71.
As for `C[C@]12CC[C@H](OS(=O)(=O)O)CC1=CC[C@@H]1[C@@H]2CC[C@]2(C)C(=O)CC[C@@H]12` [DHEA-S], in series [4], the “Magnification of LD50 decrease” value is 3.13.
`CC(C)C[C@H](NC(=O)[C@H](Cc1ccccc1)NC(=O)c1cnccn1)B(O)O` [bortezomib, Bortezomib]: in series [1], the “tumor size reduced … of Burdock Fruit extract” value is 1.8 times and the “tumor size reduced … of the anticancer agent” value is 1.4 times.
The matching figures for `COc1cccc2c1C(=O)c1c(O)c3c(c(O)c1C2=O)C[C@@](O)(C(=O)CO)C[C@@H]3O[C@H]1C[C@H](N)[C@H](O)[C@H](C)O1` [doxorubicin, Doxorubicin]: 1.4 times and “about 1.5 times”.
Regarding `CNC(=N)NCCC[C@H](N)C(=O)O` [L-NMMA], the “Magnification of LD50 decrease” value in series [4] came out at 1.72.
